In series [1] the target is T1, Peroxisome proliferator-activated receptor delta (Homo sapiens, UniProt Q03181).
T1 sequence (Q03181 whole entry): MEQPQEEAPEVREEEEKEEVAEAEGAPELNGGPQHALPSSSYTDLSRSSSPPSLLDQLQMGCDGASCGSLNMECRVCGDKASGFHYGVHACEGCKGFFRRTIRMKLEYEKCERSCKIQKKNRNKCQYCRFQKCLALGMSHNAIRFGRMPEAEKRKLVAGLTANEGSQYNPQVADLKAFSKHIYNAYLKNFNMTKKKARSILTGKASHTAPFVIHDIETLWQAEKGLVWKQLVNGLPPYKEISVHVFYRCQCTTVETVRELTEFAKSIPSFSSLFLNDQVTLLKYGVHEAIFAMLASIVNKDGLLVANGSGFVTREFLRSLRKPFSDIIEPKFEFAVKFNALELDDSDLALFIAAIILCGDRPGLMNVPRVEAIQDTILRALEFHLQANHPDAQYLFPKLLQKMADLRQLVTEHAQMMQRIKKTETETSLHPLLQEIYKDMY
Put plainly: Agonist activity at PPARdelta (unknown origin).

In series [2] the target is T2, Peroxisome proliferator-activated receptor alpha (Homo sapiens) (UniProt Q07869).
T2 sequence (whole entry): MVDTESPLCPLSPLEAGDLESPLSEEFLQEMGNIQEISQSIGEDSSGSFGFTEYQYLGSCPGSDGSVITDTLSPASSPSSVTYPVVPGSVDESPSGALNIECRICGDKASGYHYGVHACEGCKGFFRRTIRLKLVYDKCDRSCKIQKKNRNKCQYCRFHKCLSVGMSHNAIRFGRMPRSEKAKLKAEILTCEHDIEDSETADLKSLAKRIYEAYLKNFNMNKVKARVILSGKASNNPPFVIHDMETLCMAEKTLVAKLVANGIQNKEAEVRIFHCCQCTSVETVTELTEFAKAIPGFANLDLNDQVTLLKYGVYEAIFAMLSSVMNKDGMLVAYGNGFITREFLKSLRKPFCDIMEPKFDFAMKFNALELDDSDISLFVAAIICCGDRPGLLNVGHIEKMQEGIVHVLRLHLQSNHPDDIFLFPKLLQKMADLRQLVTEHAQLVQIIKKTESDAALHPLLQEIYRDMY
Put plainly: Agonist activity at PPARalpha (unknown origin) at 240 uM relative to control.

Series [3] addresses T3, Peroxisome proliferator-activated receptor gamma (Homo sapiens) (UniProt P37231).
T3 sequence (whole entry): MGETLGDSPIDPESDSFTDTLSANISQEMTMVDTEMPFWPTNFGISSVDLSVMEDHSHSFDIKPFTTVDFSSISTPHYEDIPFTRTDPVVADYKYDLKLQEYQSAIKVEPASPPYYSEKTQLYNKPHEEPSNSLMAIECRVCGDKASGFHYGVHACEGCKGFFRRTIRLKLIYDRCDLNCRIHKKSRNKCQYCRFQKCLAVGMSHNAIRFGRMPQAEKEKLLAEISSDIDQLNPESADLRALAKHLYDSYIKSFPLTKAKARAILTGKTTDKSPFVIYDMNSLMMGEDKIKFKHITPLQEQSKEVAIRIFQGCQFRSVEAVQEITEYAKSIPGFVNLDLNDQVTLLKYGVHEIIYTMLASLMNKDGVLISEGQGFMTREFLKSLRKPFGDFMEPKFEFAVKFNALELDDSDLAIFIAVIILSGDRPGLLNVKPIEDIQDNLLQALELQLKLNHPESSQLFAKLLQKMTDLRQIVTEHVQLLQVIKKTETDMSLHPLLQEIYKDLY
Description: Agonist activity at PPARgamma (unknown origin) at 80 uM relative to control. To be noted: filed as agonist.

The target of series [4] is T4, Peroxisome proliferator-activated receptor alpha (Homo sapiens, UniProt Q07869).
T4 sequence (Q07869 whole entry): T2 sequence (whole entry)
Put plainly: Agonist activity at PPARalpha (unknown origin).

Series [5] has as its target T4, Peroxisome proliferator-activated receptor alpha. Put plainly: Binding affinity to PPARalpha (unknown origin).
The target in series [6] is T2, Peroxisome proliferator-activated receptor alpha (Homo sapiens). Description: Agonist activity at PPARalpha (unknown origin) relative to control. To be noted: filed as agonist.
Series [7] shares this target. Description: Agonist activity at PPARalpha (unknown origin) at 20 uM relative to control. To be noted: filed as agonist.
Series [8] has as its target T3, Peroxisome proliferator-activated receptor gamma (Homo sapiens). Put plainly: Partial agonist activity at PPARgamma (unknown origin) relative to control.
The target of series [9] is T5, Peroxisome proliferator-activated receptor delta (Homo sapiens) (UniProt Q03181).
T5 sequence (whole entry): T1 sequence (Q03181 whole entry)
Put plainly: Agonist activity at PPARdelta (unknown origin) at 20 uM relative to control. The conditions noted are these: filed as agonist.

The target of series [10] is T6, Peroxisome proliferator-activated receptor gamma (Homo sapiens, UniProt P37231).
T6 sequence (P37231 whole entry): T3 sequence (whole entry)
Description: Binding affinity to PPARgamma (unknown origin).

Series [11] can be described thus: Half life in Syrian hamster at 100 mg/kg, po. In kind it is ADME, organism-based, Mesocricetus auratus. The conditions noted are these: in vivo.
Series [12] is described as follows: Cmax in Syrian hamster at 100 mg/kg, po. The class given is ADME, organism-based, Mesocricetus auratus. Also on record: dose 100 mg/kg, route po. To be noted: in vivo.
A short description of series [13]: Half life in mouse at 100 mg/kg, po. In kind it is ADME, organism-based. To be noted: in vivo.
A short description of series [14]: Cmax in mouse at 100 mg/kg, PO. Details: dose 100 mg/kg, route po. The conditions noted are these: in vivo. In kind it is ADME, organism-based.
Series [15] addresses T3, Peroxisome proliferator-activated receptor gamma (Homo sapiens). Description: Agonist activity at PPARgamma (unknown origin) at 0.1 to 25 uM relative to control. To be noted: dose 0.1-25 µM.

pEC50, pKi: −log10 of the molar value.

By pEC50 is commonly meant the EC50 on a negative log10 scale, so that one unit is a factor of ten. The low end stands for a large EC50, the high end for a small EC50. For `C=CCc1ccc(O)c(-c2cc(CC=C)ccc2O)c1` [MAGNOLOL], the pEC50 in [1] is 4.94.
Take `O=C1C[C@@H](c2ccc(O)cc2)Oc2cc(O)cc(O)c21`: the results for the Activity in series [2] and in [3] were 24% and 57%, respectively.
One may read the pKi as the Ki on a negative log10 scale, so that one unit is a factor of ten. `COc1ccc2cc3[n+](cc2c1OC)CCc1cc2c(cc1-3)OCO2` [BERBERINE]: the pEC50 is 6.24 in series [4] and 4.85 in [1]. For the same molecule, in [5], the negative logarithm of the Ki (pKi) is 6.14. Further, in [6], the Activity was found to be 102%.
Take `O=c1c(O)c(-c2ccc(O)cc2)oc2cc(O)cc(O)c12` [KAEMPFEROL]: the figures for the pEC50 in series [4] and in series [1] were 4.81 and 3.47, respectively. Further, the values for the Activity in series [7], in [8] (filed as partial agonist) and in series [9] were 433%, 45% and 155%, respectively.
Take `CC(C)=CCC[C@@](C)(O)[C@H]1CC[C@]2(C)[C@@H]1[C@H](O)C[C@@H]1[C@@]3(C)CC[C@H](O)C(C)(C)[C@@H]3[C@@H](O)C[C@]12C`: the pKi in [10] is 4.27.
Molecule `C=C1CC/C=C(\C)CC[C@@H]2[C@@H]1CC2(C)C` [BETA-CARYOPHYLLENE] showed a pEC50 in series [4] of 5.02.
The half-life is the time needed for the level to fall by half in the phase considered. By Cmax is commonly meant the highest concentration seen after dosing. In turn, `COc1cc(/C=C/c2cc(/C=C/c3ccc(O)c(OC)c3)n(-c3ccc(Cl)c(Cl)c3)n2)ccc1O` showed a half-life in series [11] of 2.8 h. In addition, the Cmax in [12] stood at 1390 ng/mL.
Regarding `Cc1coc2c1C(=O)C(=O)c1c-2ccc2c1CCCC2(C)C` [TANSHINONE IIA], the pKi in [10] was 5.59.
Take `COc1cc(CCc2ccccc2)c(C(=O)O)c(O)c1CC=C(C)C` [AMORFRUTIN A]: the half-life in series [13] is 2 h. In [14], the Cmax turned out to be 42400 ng/mL.
In turn, `CCCCCc1cc2c(c(O)c1C(=O)O)[C@@H]1C=C(C)CC[C@H]1C(C)(C)O2` gave an Activity in series [15] of 17%.
`O=c1c(O)c(-c2ccc(O)c(O)c2)oc2cc(O)cc(O)c12`: the Activity in series [8] was 20%.
`COc1cc(/C=C/C(=O)CC(=O)/C=C/c2ccc(O)c(OC)c2)ccc1O` [CURCUMIN]: the highest level in series [12] (Cmax) was 2.35 ng/mL.
